Data as given in patent publication US12440571B2, “Immune agonists” (SHENZHEN UNIVERSITY, priority 2020, dated 2025).
Read-outs that look alike come from different tables or passages of the source.

Key:
Assay type in all cases: cell-based
[1] = test system: murine colon cancer CT-26 cells; experiment: CCK8 growth inhibition, CT26; conditions: Mus musculus, CCK8 method, read-out: IC50 of inhibitory activity on tumor cell growth, CT26
[2] = test system: black melanoma B16 cells; experiment: CCK8 growth inhibition, B16; conditions: Mus musculus, CCK8 method, read-out: IC50 of inhibitory activity on tumor cell growth, B16
[3] = test system: A549; experiment: CCK8 growth inhibition, A549; conditions: Homo sapiens, CCK8 method, read-out: IC50 of inhibitory activity on tumor cell growth, A549
[4] = test system: human lymphoma Raji cells; experiment: CCK8 growth inhibition, Raji; conditions: Homo sapiens, Raji, CCK8 method; read-out: IC50 of inhibitory activity on tumor cell growth, Raji
[5] = test system: human leukemia HL-60 cells; experiment: CCK8 growth inhibition, HL60; conditions: Homo sapiens, HL-60, CCK8 method; read-out: IC50 of inhibitory activity on tumor cell growth, HL60
[6] = test system: human colon cancer HCT-116 cells; experiment: CCK8 growth inhibition, HCT-116; conditions: CCK8 method, read-out: IC50 of inhibitory activity on tumor cell growth, HCT-116
[7] = test system: murine leukemia WEHI-3 cells; experiment: CCK8 growth inhibition, WEHI-3; conditions: Mus musculus, CCK8 method, read-out: IC50 of inhibitory activity on tumor cell growth, WEHI-3
[8] = test system: murine spleen lymphocytes; experiment: Cytokine stimulation of murine spleen lymphocytes, ELISA; conditions: Lymphocyte, mouse immune cells (spleen lymphocytes), 24 hrs, ELISA
Experimental: The stimulating effect of a series of GY compounds or drugs on murine spleen lymphocytes was detected by ELISA.
6-week-old Balb/c mice were sacrificed by cervical dislocation, spleens were taken under aseptic conditions. A 1 mL sterile syringe and a 200 mesh cell strainer were adopted to quickly grind and disperse the spleen into individual cells in 4 mL of a murine lymphocyte separation solution (Dakko's, 7211011). A resulting cell homogenate was transferred to a 15 mL centrifuge tube, then 1 mL of a RPMI 1640 medium (Hyclone, SH30809.01) was slowly added. Spleen lymphocytes were separated by a density gradient centrifugation method (800×g, 30 min), washed, red blood cells therein were lysed, such that a dispersed spleen lymphocyte suspension was obtained. Cells were counted by a hemocytometer, to calculate the cell concentration. A RPMI 1640 complete medium was adopted to adjust the cell suspension to a concentration of 1×10^6/ml/well, and the cells were then plated on a 24-well cell culture plate (Corning, 3524).
Murine spleen lymphocytes were stimulated according to the gradient concentrations of the series of GY compounds or drugs, and incubated in a 37° C., 5% carbon dioxide incubator for 24 hrs.
• (1) Coating: a Capture antibody (primary antibody, purchased from Invitrogen) was diluted with a 1×Coating Buffer (coating buffer, purchased from Invitrogen) to a recommended concentration, and 100 μL of a resulting diluted solution was added to each well of a 96-well microtiter plate, the plate was sealed with a sealing film at 4° C. overnight. • (2) Washing: a liquid in each well was discarded, then 300 μL of a PBST working solution was added to each well and kept for 1 min, thereafter, the liquid therein was discarded. The washing process was repeated 3 times. • (3) Blocking: 200 μL of a blocking solution was added to each well. The plate was sealed with a sealing film, and placed on a shaker and incubated at room temperature for 1 hr, then washed and patted to be dry. • (4) Sample incubation: a sample was collected and centrifuged to collect a supernatant. Standards, samples, negative controls, and blank controls were provided in the 96-well microtiter plate, and each concentration or sample were provided with 2 replicates. 100 μL of a standard or sample was added to each well, thereafter, the plate was sealed with a sealing film, incubated on a shaker at room temperature for 1 hr or overnight at 4° C., then washed and pated to be dry. • (5) Secondary antibody incubation: the detection antibody (secondary antibody, purchased from Invitrogen) was diluted to a recommended concentration with a dilution buffer, 100 μL of a secondary antibody was added to each well. After being sealed with a sealing film, the plate was incubated on a shaker at room temperature for 1 hr, then washed and patted to be dry. • (6) Avidin-HRP incubation: Avidin-HRP (horseradish peroxidase marker, purchased from Invitrogen) was diluted to the recommended concentration with a dilution buffer, 100 μL of Avidin-HRP was added to each well. After being sealed with a sealing film, the plate was placed on a shaker and incubated at room temperature for 30 mins, washed 5-7 times by the process of step 2), and patted to be dry. • (7) TMB color development: 100 μL of a TMB color development solution (purchased from Invitrogen) was added to each well, for carrying out reaction for 15 mins at room temperature in the dark. • (8) Stopping reaction: 50 μL of 1M H2SO4 solution was added to each well. • (9) Reading an absorbance value by a microplate reader: the OD value at 450 nm wavelength was read. A standard curve and a parameter nonlinear regression equation were drawn, and a sample concentration was calculated according to the obtained formula.

[9] = test system: LLC; experiment: CCK8 growth inhibition, LLC; conditions: Lewis lung carcinoma; CCK8 method; read-out: IC50 of inhibitory activity on tumor cell growth, LLC
[10] = test system: human leukemia K562 cells; experiment: CCK8 growth inhibition, K562; conditions: CCK8 method, read-out: IC50 of inhibitory activity on tumor cell growth, K562
[11] = test system: human lymphoma Daudi B cells; experiment: CCK8 growth inhibition, Daudi B; conditions: Homo sapiens, Daudi, CCK8 method; read-out: IC50 of inhibitory activity on tumor cell growth, Daudi B
[12] = test system: HEK293T cells; experiment: CCK8 growth inhibition, HEK-293T; conditions: Homo sapiens, CCK8 method, read-out: IC50 of inhibitory activity on cell growth, HEK-293T
[13] = read-out: IFN-gamma EC50 of cytokine stimulating activity
[14] = read-out: IL-6 EC50 of cytokine stimulating activity
[15] = read-out: TNF-alpha EC50 of cytokine stimulating activity

SMILES	IC50 [1]	IC50 [2]	IC50 [3]	IC50 [4]	IC50 [5]	IC50 [6]	IC50 [7]	EC50 [8, 13]	EC50 [8, 14]	EC50 [8, 15]	IC50 [9]	IC50 [10]	IC50 [11]	IC50 [12]
CCCCOc1nc(N)c2nc(O)n(Cc3cn(CCOCCOCCOCCNC(=S)N4CCCC(n5nc(-c6ccc(Oc7ccccc7)cc6)c6c(N)ncnc65)C4)nn3)c2n1 (stereo not shown) [GY112]	25 µM	34.1 µM	16.8 µM	10.6 µM	9.75 µM	15.7 µM	5.31 µM	8.3 µM	0.314 µM	0.914 µM	18.8 µM	14.6 µM	8.73 µM	13.8 µM
CCCCOc1nc(N)c2nc(O)n(Cc3cn(CCOCCOCCOCCNC(=S)Nc4cc(Nc5nccc(-c6cn(C)c7ccccc67)n5)c(OC)cc4N(C)CCN(C)C)nn3)c2n1 [GY127]	16.9 µM		23.2 µM		19.1 µM	20.8 µM		0.753 µM	0.083 µM	0.248 µM	15.3 µM	17.8 µM		26 µM
CCCCOc1nc(N)c2nc(O)n(Cc3cn(CCCCN4CCN(CCCNC(=S)N5CCCC(n6nc(-c7ccc(Oc8ccccc8)cc7)c7c(N)ncnc76)C5)CC4)nn3)c2n1 (stereo not shown) [GY161]	6.15 µM	11.7 µM		16.1 µM				1.53 µM	0.006 µM	0.011 µM			11.8 µM	
